This passage reports inhibition results from patent publication US12122763B2, “Substituted piperidines for androgen receptor degradation” (UBIX THERAPEUTICS, INC., priority 2020, dated 2024).

For the assay, the target named is T1, Androgen Receptor (AR) protein (Homo sapiens, UniProt P10275, T878A).
T1 construct: endogenous in cells; host or cells: LNCaP
Nature of the assay: Androgen Receptor (AR) protein degradation assay in LNCaP cells, western blotting. The class given is cell-based. Conditions: 20 h; for inhibition at 0.01 µM: 0.01 μM compound; for inhibition at 0.1 µM: 0.1 μM compound; for inhibition at 1 µM: 1 μM compound. The method, boiled down: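 AR protein level was detected by western blot (ECL) against GAPDH or β-actin controls, with 8 μg lysate protein loaded per lane after BCA quantification. Lysates came from LNCaP cells exposed to test compound for 20 h, following 3 days of growth in RPMI/10% FBS.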

T1 sequence (P10275 whole entry T878A): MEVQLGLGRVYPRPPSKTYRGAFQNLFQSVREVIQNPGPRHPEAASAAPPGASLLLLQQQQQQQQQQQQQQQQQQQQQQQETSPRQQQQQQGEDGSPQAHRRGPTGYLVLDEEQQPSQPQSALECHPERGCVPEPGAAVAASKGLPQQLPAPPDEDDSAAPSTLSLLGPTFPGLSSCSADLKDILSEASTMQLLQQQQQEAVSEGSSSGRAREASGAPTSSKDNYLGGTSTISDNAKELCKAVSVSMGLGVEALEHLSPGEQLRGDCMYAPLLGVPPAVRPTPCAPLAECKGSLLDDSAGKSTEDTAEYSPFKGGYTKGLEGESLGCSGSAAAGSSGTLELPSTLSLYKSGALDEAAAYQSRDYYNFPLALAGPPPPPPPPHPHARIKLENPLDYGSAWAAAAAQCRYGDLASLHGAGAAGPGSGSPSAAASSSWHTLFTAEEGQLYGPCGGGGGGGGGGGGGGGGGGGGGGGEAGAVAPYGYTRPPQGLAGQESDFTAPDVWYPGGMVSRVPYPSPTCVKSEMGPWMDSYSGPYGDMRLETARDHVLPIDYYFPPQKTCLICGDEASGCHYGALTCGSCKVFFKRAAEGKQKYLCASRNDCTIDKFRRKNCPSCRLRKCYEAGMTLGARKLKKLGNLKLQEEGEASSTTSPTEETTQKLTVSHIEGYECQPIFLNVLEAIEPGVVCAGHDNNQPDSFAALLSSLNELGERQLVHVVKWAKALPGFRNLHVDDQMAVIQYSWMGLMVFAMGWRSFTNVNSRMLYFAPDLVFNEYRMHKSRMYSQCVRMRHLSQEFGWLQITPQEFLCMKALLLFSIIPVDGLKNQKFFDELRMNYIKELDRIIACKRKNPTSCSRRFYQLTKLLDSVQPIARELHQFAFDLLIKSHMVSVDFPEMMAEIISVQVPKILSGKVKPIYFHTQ
T1 sequence (Q96SW2 whole entry partner): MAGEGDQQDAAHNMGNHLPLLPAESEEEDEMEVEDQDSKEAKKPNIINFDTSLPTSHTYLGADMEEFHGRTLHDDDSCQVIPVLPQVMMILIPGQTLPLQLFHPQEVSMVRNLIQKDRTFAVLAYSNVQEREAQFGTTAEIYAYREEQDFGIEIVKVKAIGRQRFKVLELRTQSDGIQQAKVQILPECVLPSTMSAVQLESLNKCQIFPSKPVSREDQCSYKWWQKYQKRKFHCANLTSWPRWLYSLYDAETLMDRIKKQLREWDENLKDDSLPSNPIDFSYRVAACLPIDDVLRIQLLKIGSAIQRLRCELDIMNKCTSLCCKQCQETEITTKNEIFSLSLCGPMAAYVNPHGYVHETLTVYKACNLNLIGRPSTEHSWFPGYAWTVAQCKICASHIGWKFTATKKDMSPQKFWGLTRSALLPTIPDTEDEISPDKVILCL

Take `N#Cc1ncc(N2CCC(F)(C(=O)Nc3ccc(N4CCC(CN5CC6(CCN(c7ccc8c(c7)C(=O)N(C7CCC(=O)NC7=O)C8=O)CC6)C5)CC4)cn3)CC2)cc1C(F)(F)F` (stereo not drawn) [Example 58, 1-(6-cyano-5-(trifluoromethyl)pyridin-3-yl)-N-(5-(4-((7-(2-(2,6-dioxopiperidin-3-yl)-1,3-dioxoisoindolin-5-yl)-2,7-diazaspiro[3.5]nonan-2-yl)methyl)piperidin-1-yl)pyridin-2-yl)-4-fluoropiperidine-4-carboxamide]: the inhibition (as a rule, the percentage by which the read-out fell short of the control) at 0.01 µM amounted to 16%; the inhibition at 0.1 µM was determined as 41%; the inhibition at 1 µM stood at 77%.

`N#Cc1ccc(N2CCC(C(=O)Nc3ccc(N4CCC(CN5CCN(CCOc6ccc7c(c6)C(=O)N(C6CCC(=O)NC6=O)C7=O)CC5)CC4)cn3)CC2)cc1C(F)(F)F` (stereo not drawn) [Example 3, 1-(4-cyano-3-(trifluoromethyl)phenyl)-N-(5-(4-((4-(2-((2-(2,6-dioxopiperidin-3-yl)-1,3-dioxoisoindolin-5-yl)oxy)ethyl)piperazin-1-yl)methyl)piperidin-1-yl)pyridin-2-yl)piperidine-4-carboxamide] had an inhibition at 0.01 µM of 45%, an inhibition at 0.1 µM of 98% and an inhibition at 1 µM of 96%.

Turning to `N#Cc1ncc(N2CCC(C(=O)Nc3ccc(N4CCC(CN5CCN(CC6CCN(c7ccc8c(c7)C(=O)N(C7CCC(=O)NC7=O)C8=O)CC6)CC5)CC4)cn3)CC2)cc1C(F)(F)F` (stereo not drawn) [Example 9, 1-(6-cyano-5-(trifluoromethyl)pyridin-3-yl)-N-(5-(4-((4-((1-(2-(2,6-dioxopiperidin-3-yl)-1,3-dioxoisoindolin-5-yl)piperidin-4-yl)methyl)piperazin-1-yl)methyl)piperidin-1-yl)pyridin-2-yl)piperidine-4-carboxamide], the inhibition at 0.01 µM was determined as 62%, 0.1 µM produced 95% inhibition and the inhibition at 1 µM came out at 95%.

`N#Cc1ccc(N2CCC(C(=O)Nc3ccc(N4CCC(CN5CCN(C6CCN(c7ccc8c(n7)CN(C7CCC(=O)NC7=O)C8=O)CC6)CC5)CC4)cn3)CC2)cc1C(F)(F)F` (stereo not drawn) [Example 75, 1-(4-cyano-3-(trifluoromethyl)phenyl)-N-(5-(4-((4-(1-(6-(2,6-dioxopiperidin-3-yl)-5-oxo-6,7-dihydro-5H-pyrrolo[3,4-b]pyridin-2-yl)piperidin-4-yl)piperazin-1-yl)methyl)piperidin-1-yl)pyridin-2-yl)piperidine-4-carboxamide] yielded an inhibition at 0.01 µM of 82%, an inhibition at 0.1 µM of 97% and an inhibition at 1 µM of 90%.

In turn, `N#Cc1ccc(N2CCC(C(=O)Nc3ccc(N4CCC(CN5CCN(C6CCN(c7ccc(C(=O)NC8CCC(=O)NC8=O)nc7)CC6)CC5)CC4)cn3)CC2)cc1C(F)(F)F` (stereo not drawn) [Example 105, 5-(4-(4-((1-(6-(1-(4-cyano-3-(trifluoromethyl)phenyl)piperidine-4-carboxamido)pyridin-3-yl)piperidin-4-yl)methyl)piperazin-1-yl)piperidin-1-yl)-N-(2,6-dioxopiperidin-3-yl)picolinamide] registered an inhibition at 0.01 µM of 43%, an inhibition at 0.1 µM of 82% and an inhibition at 1 µM of 92%.

Molecule `N#Cc1ccc(N2CCC(C(=O)Nc3ccc(N4CCC(CCN5CC(N6CCN(c7ccc8c(c7)C(=O)N(C7CCC(=O)NC7=O)C8=O)CC6)C5)CC4)cn3)CC2)cc1C(F)(F)F` (stereo not drawn) [Example 97, 1-(4-cyano-3-(trifluoromethyl)phenyl)-N-(5-(4-(2-(3-(4-(2-(2,6-dioxopiperidin-3-yl)-1,3-dioxoisoindolin-5-yl)piperazin-1-yl)azetidin-1-yl)ethyl)piperidin-1-yl)pyridin-2-yl)piperidine-4-carboxamide] had an inhibition at 0.01 µM of 39%, an inhibition at 0.1 µM of 93% and an inhibition at 1 µM of 96%.

In the case of `C[C@H]1CN(C2CCN(c3ccc4c(n3)CN(C3CCC(=O)NC3=O)C4=O)CC2)CCN1CC1CCN(c2ccc(NC(=O)C3CCN(c4ccc(C#N)c(C(F)(F)F)c4)CC3)nc2)CC1` (stereo partly drawn) [Example 45, 1-(4-cyano-3-(trifluoromethyl)phenyl)-N-(5-(4-(((2S)-4-(1-(6-(2,6-dioxopiperidin-3-yl)-5-oxo-6,7-dihydro-5H-pyrrolo[3,4-b]pyridin-2-yl)piperidin-4-yl)-2-methylpiperazin-1-yl)methyl)piperidin-1-yl)pyridin-2-yl)piperidine-4-carboxamide], the inhibition at 0.01 µM was found to be 66%, at 0.1 µM the inhibition was 95% and the inhibition at 1 µM was found to be 87%.

Molecule `N#Cc1ccc(N2CCC(C(=O)Nc3ncc(N4CCC(CN5CCN(CC6CCN(c7ccc8c(c7)C(=O)N(C7CCC(=O)NC7=O)C8=O)CC6)CC5)CC4)cn3)CC2)cc1C(F)(F)F` (stereo not drawn) [Example 157, 1-(4-cyano-3-(trifluoromethyl)phenyl)-N-(5-(4-((4-((1-(2-(2,6-dioxopiperidin-3-yl)-1,3-dioxoisoindolin-5-yl)piperidin-4-yl)methyl)piperazin-1-yl)methyl)piperidin-1-yl)pyrimidin-2-yl)piperidine-4-carboxamide] registered an inhibition at 0.01 µM of 0%, an inhibition at 0.1 µM of 33% and an inhibition at 1 µM of 78%.

With `N#Cc1ccc(N2CCC(C(=O)Nc3ccc(N4CC(CN5CCN(C6CN(c7ccc8c(c7)C(=O)N(C7CCC(=O)NC7=O)C8=O)C6)CC5)C4)cn3)CC2)cc1C(F)(F)F` (stereo not drawn) [Example 36, 1-(4-cyano-3-(trifluoromethyl)phenyl)-N-(5-(3-((4-(1-(2-(2,6-dioxopiperidin-3-yl)-1,3-dioxoisoindolin-5-yl)azetidin-3-yl)piperazin-1-yl)methyl)azetidin-1-yl)pyridin-2-yl)piperidine-4-carboxamide], the inhibition at 0.01 µM amounted to 66%, at 0.1 µM the inhibition was 94% and the inhibition at 1 µM came to 94%.

Take `N#Cc1ccc(N2CCC(C(=O)Nc3ccc(N4CCN(CCOC5CCN(c6ccc7c(c6)C(=O)N(C6CCC(=O)NC6=O)C7=O)CC5)CC4)cn3)CC2)cc1C(F)(F)F` (stereo not drawn) [Example 117, 1-(4-cyano-3-(trifluoromethyl)phenyl)-N-(5-(4-(2-((1-(2-(2,6-dioxopiperidin-3-yl)-1,3-dioxoisoindolin-5-yl)piperidin-4-yl)oxy)ethyl)piperazin-1-yl)pyridin-2-yl)piperidine-4-carboxamide]: at 0.01 µM the inhibition was 35%, testing at 0.1 µM gave an inhibition of 84% and 1 µM produced 94% inhibition.

For the molecule `N#Cc1ncc(N2CCC(C(=O)Nc3ccc(N4CCC(CCN5CCN(c6ccc7c(c6)C(=O)N(C6CCC(=O)NC6=O)C7=O)CC5)CC4)cn3)CC2)cc1C(F)(F)F` (stereo not drawn) [Example 89, 1-(6-cyano-5-(trifluoromethyl)pyridin-3-yl)-N-(5-(4-(2-(4-(2-(2,6-dioxopiperidin-3-yl)-1,3-dioxoisoindolin-5-yl)piperazin-1-yl)ethyl)piperidin-1-yl)pyridin-2-yl)piperidine-4-carboxamide], the inhibition at 0.01 µM was 35%, the inhibition at 0.1 µM came to 73% and at 1 µM the inhibition was 91%.

As for `N#Cc1ccc(N2CCC(C(=O)Nc3ccc(N4CCC(CN5CCN(CC6CCN(c7ccc8c(c7)C(=O)N(C7CCC(=O)NC7=O)C8=O)CC6)CC5)CC4)cc3)CC2)cc1C(F)(F)F` (stereo not drawn) [Example 21, 1-(4-cyano-3-(trifluoromethyl)phenyl)-N-(4-(4-((4-((1-(2-(2,6-dioxopiperidin-3-yl)-1,3-dioxoisoindolin-5-yl)piperidin-4-yl)methyl)piperazin-1-yl)methyl)piperidin-1-yl)phenyl)piperidine-4-carboxamide], the inhibition at 0.01 µM was found to be 47%, at 0.1 µM the inhibition was 50% and the inhibition at 1 µM stood at 63%.

Consider `N#Cc1ccc(N2CCC(C(=O)Nc3ccc(OCCC4CCN(CC5CCN(c6ccc7c(c6)C(=O)N(C6CCC(=O)NC6=O)C7=O)CC5)CC4)cn3)CC2)cc1C(F)(F)F` (stereo not drawn) [Example 175, 1-(4-cyano-3-(trifluoromethyl)phenyl)-N-(5-(2-(1-((1-(2-(2,6-dioxopiperidin-3-yl)-1,3-dioxoisoindolin-5-yl)piperidin-4-yl)methyl)piperidin-4-yl)ethoxy)pyridin-2-yl)piperidine-4-carboxamide], for which the inhibition at 0.01 µM was determined as 70%, the inhibition at 0.1 µM was 95% and testing at 1 µM gave an inhibition of 97%.

Take `C[C@@H]1CN(CC2CCN(c3ccc(NC(=O)C4CCN(c5ccc(C#N)c(C(F)(F)F)c5)CC4)nc3)CC2)CCN1C1CN(c2ccc3c(c2)C(=O)N(C2CCC(=O)NC2=O)C3=O)C1` (stereo partly drawn) [Example 40, 1-(4-cyano-3-(trifluoromethyl)phenyl)-N-(5-(4-(((3R)-4-(1-(2-(2,6-dioxopiperidin-3-yl)-1,3-dioxoisoindolin-5-yl)azetidin-3-yl)-3-methylpiperazin-1-yl)methyl)piperidin-1-yl)pyridin-2-yl)piperidine-4-carboxamide]: the inhibition at 0.01 µM came out at 43%, the inhibition at 0.1 µM came to 94% and the inhibition at 1 µM turned out to be 94%.

Molecule `N#Cc1ccc(N2CCC(C(=O)Nc3ccc(N4CCC(CN5CC[C@@H](CN6CCN(c7ccc8c(c7)C(=O)N(C7CCC(=O)NC7=O)C8=O)CC6)C5)CC4)cn3)CC2)cc1C(F)(F)F` (stereo partly drawn) [Example 83, 1-(4-cyano-3-(trifluoromethyl)phenyl)-N-(5-(4-(((3R)-3-((4-(2-(2,6-dioxopiperidin-3-yl)-1,3-dioxoisoindolin-5-yl)piperazin-1-yl)methyl)pyrrolidin-1-yl)methyl)piperidin-1-yl)pyridin-2-yl)piperidine-4-carboxamide] came in with an inhibition at 0.01 µM of 25%, an inhibition at 0.1 µM of 87% and an inhibition at 1 µM of 96%.
